Like-named read-outs stand apart in the source and are kept apart here. Marks after values point to notes of the source that are not given here. Blank lines part the entries; values can stand above or below the compound they belong to. Peptide text beside a SMILES is read from it. * marks the point of attachment. 5FAM = O=C1OC2(c3ccc(O)cc3Oc3cc(O)ccc32)c2ccc(C(=O)*)cc21
Tests used:
[1] = FAM alone, trans-corneal; cited from earlier work
Excerpt: Finally, also the propensity of CPPs to enter corneal epithelium and endothelium cells should be considered.

[2] = Ex vivo trans-corneal permeation, Franz-type diffusion cells; assay type: in vitro ADME, pig; conditions: ex vivo porcine cornea, area 0.2 cm^2, 37 °C, 6 h, fluorescence 485/535 nm, mean ± sd
Method: (§1) Permeation experiments across freshly porcine cornea were performed following a method previously reported. In detail, transparent porcine corneas were isolated from fresh pig eyes (breed: Large White and Landrace; weight: 145–190 kg; age: 10–11 months; sex: female and male; Macello Annoni SpA, Busseto, Italy) and supported by glass Franz-type diffusion cells, having a permeation area of 0.2 cm^2. The epithelial side was in contact with the donor, i.e., 200 µL of aqueous solution containing a peptide: each concentration and solvent are indicated in Table 2. Donor concentrations were selected based on different solubility and analytical sensitivity (see paragraph 2.4 and Table S2). For some peptides, the solubilization was improved by dissolving the raw material using small amount of DMSO (final concentration less than 5% v/v), and then PBS or PBS+0.1% BSA were alternately added.
To fill the receptor compartment, around 4 mL of degassed PBS or PBS+0.1% BSA was used (see Table 2), being kept at 37 °C and maintained under magnetic stirring to avoid any boundary layer effect. The presence of 0.1% BSA aids in preventing peptides aggregation. Permeation experiments lasted 6 h, and for quantification purposes, 200 µL of the receiving solution were collected every hour and reintegrated with fresh medium. Each condition was replicated between 3 and 4 times, using cornea isolated from different animals.
Permeation samples were analysed without preliminary separation by fluorescence, using a Spark 10M microplate reader (Tecan Trading AG, Switzerland); excitation and emission wavelengths were 485 nm and 535 nm, respectively. Standard solutions were prepared in PBS pH 7.4 or in PBS containing BSA 0.1%. RSD% (relative standard deviation %) was lower than 10%, while ER% (relative error %) resulted lower than 15%.
The amount of CPP permeated across the cornea (nmol/cm^2) is plotted against time (hour): the slope of the regression line at steady state represents the trans-corneal flux J (nmol/cm^2 h). The apparent permeability coefficient Papp (cm/s) is then calculated as Equation (1): Papp = J/c(1) being c (µM) the concentration of the donor solution. Papp allows for a direct comparison among permeants studied using different donor concentrations.

[3] = Aqueous solubility / precipitation of donor solutions (observation); assay type: physicochemical; conditions: for solubilization of donor solution: 250 µM, PBS pH 7.4; for solubility in aqueous medium: fluorescein (FL) as cargo, not used in ex vivo permeation experiments
Method: as §1
We have also analysed if the sequence reciprocity (GG vs. R) plays a role in the diffusivity of the peptide across the cornea and we found no difference between most of the paired sequences, namely PNT-GG 2 vs. PNT-R 4, PNT-GG 3 vs. PNT-R 3, PNT-GG 4 vs. PNT-R 2, PNT-GG 5 vs. PNT-R 1 (Figure 3b). This confirms that the sequence is only one of the factors affecting the translocation: in fact, even CPP concentration, type of cells, and cargo can strongly influence CPP final behavior/activity. […] Differently, the presence of FAM, a more hydrophilic fluorescent probe, allowed for aqueous solutions ranging in concentration from 25 to 250 µM (Table 2).

[4] = donor 100 µM, 200 µL, donor and receiving solutions PBS+BSA 0.1% pH 7.4, n = 3
[5] = donor 25 µM, 200 µL, donor and receiving solutions PBS pH 7.4, n = 4
[6] = donor 250 µM, 200 µL, donor and receiving solutions PBS pH 7.4, n = 3-4

Compound: 5(6)-Carboxyfluorescein [FAM]
Papp (apparent permeability coefficient) [1]: 0.29 ± 0.08 × 10^−6 cm/s

Compound: CSCC[C@H](NC(=O)[C@H](CCCNC(=N)N)NC(=O)[C@H](CCCNC(=N)N)NC(=O)[C@H](CC(N)=O)NC(=O)CNC(=O)CNC(=O)c1ccc2c(c1)C(=O)OC21c2ccc(O)cc2Oc2cc(O)ccc21)C(=O)N[C@@H](CCCCN)C(=O)N[C@@H](Cc1c[nH]c2ccccc12)C(=O)N[C@@H](CCCCN)C(=O)N[C@@H](CCCCN)C(N)=O [PNT-GG 1] (5FAM-GGNRRMKWKK-NH2)
Papp (apparent permeability coefficient) ([2]; epithelial side to donor, donor 100 µM, 200 µL, donor and receiving solutions PBS pH 7.4, hourly sampling, n = 3-4): 1.33 ± 0.11 × 10^−6 cm/s

Compound: CSCC[C@H](NC(=O)[C@H](CCCNC(=N)N)NC(=O)[C@H](CCCNC(=N)N)NC(=O)[C@H](CC(N)=O)NC(=O)[C@H](CCC(N)=O)NC(=O)[C@H](Cc1ccccc1)NC(=O)CNC(=O)CNC(=O)c1ccc2c(c1)C(=O)OC21c2ccc(O)cc2Oc2cc(O)ccc21)C(=O)N[C@@H](CCCCN)C(=O)N[C@@H](Cc1c[nH]c2ccccc12)C(N)=O [PNT-GG 2] (5FAM-GGFQNRRMKW-NH2)
Papp (apparent permeability coefficient) [2, 4]: 0.55 ± 0.57 × 10^−6 cm/s

Compound: CC[C@H](C)[C@H](NC(=O)CNC(=O)CNC(=O)c1ccc2c(c1)C(=O)OC21c2ccc(O)cc2Oc2cc(O)ccc21)C(=O)N[C@@H](Cc1c[nH]c2ccccc12)C(=O)N[C@@H](Cc1ccccc1)C(=O)N[C@@H](CCC(N)=O)C(=O)N[C@@H](CC(N)=O)C(=O)N[C@@H](CCCNC(=N)N)C(=O)N[C@@H](CCCNC(=N)N)C(=O)N[C@@H](CCSC)C(N)=O [PNT-GG 3] (5FAM-GGIWFQNRRM-NH2)
Papp (apparent permeability coefficient) [2, 4]: 0.44 ± 0.50 × 10^−6 cm/s

Compound: CC[C@H](C)[C@H](NC(=O)CNC(=O)CNC(=O)c1ccc2c(c1)C(=O)OC21c2ccc(O)cc2Oc2cc(O)ccc21)C(=O)N[C@@H](CCCCN)C(=O)N[C@H](C(=O)N[C@@H](Cc1c[nH]c2ccccc12)C(=O)N[C@@H](Cc1ccccc1)C(=O)N[C@@H](CCC(N)=O)C(=O)N[C@@H](CC(N)=O)C(=O)N[C@@H](CCCNC(=N)N)C(N)=O)[C@@H](C)CC [PNT-GG 4] (5FAM-GGIKIWFQNR-NH2)
Papp (apparent permeability coefficient) [2, 4]: 0.34 ± 0.14 × 10^−6 cm/s

Compound: CC[C@H](C)[C@H](NC(=O)[C@H](CCCCN)NC(=O)[C@@H](NC(=O)[C@H](CCC(N)=O)NC(=O)[C@H](CCCNC(=N)N)NC(=O)CNC(=O)CNC(=O)c1ccc2c(c1)C(=O)OC21c2ccc(O)cc2Oc2cc(O)ccc21)[C@@H](C)CC)C(=O)N[C@@H](Cc1c[nH]c2ccccc12)C(=O)N[C@@H](Cc1ccccc1)C(=O)N[C@@H](CCC(N)=O)C(=O)N[C@@H](CC(N)=O)C(=O)N[C@@H](CCCNC(=N)N)C(=O)N[C@@H](CCCNC(=N)N)C(=O)N[C@@H](CCSC)C(=O)N[C@@H](CCCCN)C(=O)N[C@@H](Cc1c[nH]c2ccccc12)C(=O)N[C@@H](CCCCN)C(=O)N[C@@H](CCCCN)C(N)=O [PNT-GG]
Papp (apparent permeability coefficient) [2, 5]: 4.41 ± 2.93 × 10^−6 cm/s
solubilization of donor solution [3]: complete solubilization

The next lines start with the values.

Papp (apparent permeability coefficient) ([2]; donor 100 µM in PBS pH 7.4, receiving solution PBS+BSA 0.1% pH 7.4, n = 3): 0.50 ± 0.70 ^d × 10^−6 cm/s
Papp (apparent permeability coefficient) [2, 4]: 0.24 ± 0.40 ^d × 10^−6 cm/s
Compound: CC[C@H](C)[C@H](NC(=O)[C@H](CCCCN)NC(=O)[C@@H](NC(=O)[C@H](CCC(N)=O)NC(=O)[C@H](CCCNC(=N)N)NC(=O)CNC(=O)CNC(=O)c1ccc2c(c1)C(=O)OC21c2ccc(O)cc2Oc2cc(O)ccc21)[C@@H](C)CC)C(=O)N[C@@H](Cc1c[nH]c2ccccc12)C(=O)N[C@@H](Cc1ccccc1)C(=O)N[C@@H](CCC(N)=O)C(N)=O [PNT-GG 5] (5FAM-GGRQIKIWFQ-NH2)

Papp (apparent permeability coefficient) [2, 6]: 0.93 ± 0.53 × 10^−6 cm/s
Compound: CC[C@H](C)[C@H](NC(=O)[C@H](CCCCN)NC(=O)[C@@H](NC(=O)[C@H](Cc1c[nH]c2ccccc12)NC(=O)[C@H](Cc1ccccc1)NC(=O)[C@H](CCC(N)=O)NC(=O)CNC(=O)CNC(=O)c1ccc2c(c1)C(=O)OC21c2ccc(O)cc2Oc2cc(O)ccc21)[C@@H](C)CC)C(=O)N[C@@H](CCC(N)=O)C(=O)N[C@@H](CCCNC(=N)N)C(N)=O [PNT-R 1] (5FAM-GGQFWIKIQR-NH2)

Papp (apparent permeability coefficient) [2, 6]: 0.23 ± 0.16 × 10^−6 cm/s
Compound: CC[C@H](C)[C@H](NC(=O)[C@H](CCCCN)NC(=O)[C@@H](NC(=O)[C@H](Cc1c[nH]c2ccccc12)NC(=O)[C@H](Cc1ccccc1)NC(=O)[C@H](CCC(N)=O)NC(=O)[C@H](CC(N)=O)NC(=O)[C@H](CCCNC(=N)N)NC(=O)CNC(=O)CNC(=O)c1ccc2c(c1)C(=O)OC21c2ccc(O)cc2Oc2cc(O)ccc21)[C@@H](C)CC)C(N)=O [PNT-R 2] (5FAM-GGRNQFWIKI-NH2)

Papp (apparent permeability coefficient) [2, 6]: 0.002 ± 0.004 × 10^−6 cm/s
Compound: CC[C@H](C)[C@H](NC(=O)[C@H](Cc1c[nH]c2ccccc12)NC(=O)[C@H](Cc1ccccc1)NC(=O)[C@H](CCC(N)=O)NC(=O)[C@H](CC(N)=O)NC(=O)[C@H](CCCNC(=N)N)NC(=O)[C@H](CCCNC(=N)N)NC(=O)[C@H](CCSC)NC(=O)CNC(=O)CNC(=O)c1ccc2c(c1)C(=O)OC21c2ccc(O)cc2Oc2cc(O)ccc21)C(N)=O [PNT-R 3] (5FAM-GGMRRNQFWI-NH2)

Papp (apparent permeability coefficient) [2, 6]: 0.13 ± 0.07 × 10^−6 cm/s
Compound: CSCC[C@H](NC(=O)[C@H](CCCCN)NC(=O)[C@H](Cc1c[nH]c2ccccc12)NC(=O)CNC(=O)CNC(=O)c1ccc2c(c1)C(=O)OC21c2ccc(O)cc2Oc2cc(O)ccc21)C(=O)N[C@@H](CCCNC(=N)N)C(=O)N[C@@H](CCCNC(=N)N)C(=O)N[C@@H](CC(N)=O)C(=O)N[C@@H](CCC(N)=O)C(=O)N[C@@H](Cc1ccccc1)C(N)=O [PNT-R 4] (5FAM-GGWKMRRNQF-NH2)

Papp (apparent permeability coefficient) [2, 6]: 0.05 ± 0.01 × 10^−6 cm/s
Compound: CSCC[C@H](NC(=O)[C@H](CCCCN)NC(=O)[C@H](Cc1c[nH]c2ccccc12)NC(=O)[C@H](CCCCN)NC(=O)[C@H](CCCCN)NC(=O)CNC(=O)CNC(=O)c1ccc2c(c1)C(=O)OC21c2ccc(O)cc2Oc2cc(O)ccc21)C(=O)N[C@@H](CCCNC(=N)N)C(=O)N[C@@H](CCCNC(=N)N)C(=O)N[C@@H](CC(N)=O)C(N)=O [PNT-R 5] (5FAM-GGKKWKMRRN-NH2)

Papp (apparent permeability coefficient) [2, 5]: 7.08 ± 6.66 × 10^−6 cm/s
solubilization of donor solution [3]: complete solubilization
Compound: CC[C@H](C)[C@H](NC(=O)[C@H](CCCCN)NC(=O)[C@@H](NC(=O)[C@H](Cc1c[nH]c2ccccc12)NC(=O)[C@H](Cc1ccccc1)NC(=O)[C@H](CCC(N)=O)NC(=O)[C@H](CC(N)=O)NC(=O)[C@H](CCCNC(=N)N)NC(=O)[C@H](CCCNC(=N)N)NC(=O)[C@H](CCSC)NC(=O)[C@H](CCCCN)NC(=O)[C@H](Cc1c[nH]c2ccccc12)NC(=O)[C@H](CCCCN)NC(=O)[C@H](CCCCN)NC(=O)CNC(=O)CNC(=O)c1ccc2c(c1)C(=O)OC21c2ccc(O)cc2Oc2cc(O)ccc21)[C@@H](C)CC)C(=O)N[C@@H](CCC(N)=O)C(=O)N[C@@H](CCCNC(=N)N)C(N)=O [PNT-R] (5FAM-GGKKWKMRRNQFWIKIQR-NH2)

solubility in aqueous medium [3]: poorly soluble
Compound: FL-GG-KKWKMRRNQFWIKIQR [PNT-R-FL, fluorescein-GG-labelled reversed penetratin, C-terminal amide]

solubility in aqueous medium [3]: poorly soluble
Compound: FL-GG-WKMRRNQF [PNT-R-4-FL, fluorescein-GG-labelled analogue of PNT-R 4, C-terminal amide]
